From US20120171305A1, “Response Prediction in Cancer Treatment Involving p53 Adapted Cancer Therapy” (priority 2011, published 2012)

Tested on: stage III colon cancer
Assay: Studie 90: fluorouracil-based adjuvant chemotherapy, survival by TP53 genotype
Assay type: in vivo, human
Details: for five-years survival rate: low risk patients (1-3 positive lymph nodes)
Description: Tumor specimens were collected from 411 patients enrolled in a randomised trial of fluorouracil-based adjuvant chemotherapy for stage III colon cancer patients.
Fluorouracil acts according to pathway 1 and is supposed to need a normal p53 for induction of apoptosis. The p53 gene status could be assessed in 389 tumors through standardized, gene specific sequencing of the TP53 gene.

For `O=c1[nH]cc(F)c(=O)[nH]1` [fluorouracil], the five-year survival (entire stage IIIA cohort) was 84.5%, the “interaction between survival and TP53 genotype” value (high-risk stage III patients) was “no interaction” and the five-years survival rate (TP53 mutated) was 64.7%. The five-years survival rate (normal TP53 genotype) was 81%, the “interaction with TP53 genotype” value (mutant TP53 genotype, low-risk stage III patients) was “negatively interacts” and the “interaction with TP53 genotype” value (normal p53 genotype, low risk stage III patients (N1 or IIIA and IIIB stage)) was “positively interacts”. For the same compound, the five-year survival (stage IIIA, TP53 mutant) was 78%, the five-year survival (stage IIIA, TP53 normal) was 91% and the five-year survival (stage IIIB cohort) was 63%. The five-year survival (stage IIIB, TP53 mutant) was 60%, the five-year survival (stage IIIB, TP53 normal) was 79% and the “benefit in relation to the TP53 genotype” value (stage IIIC patients) was “no differential benefit”.
